{
  "source": "patent US20110269219A1",
  "about": "“Method for increasing algae growth and the use thereof in production of algae-derived biofuels and other chemical” (GST Growth, LLC, priority 2010, published 2011)",
  "test_system": "Protococcus",
  "assay": "Growth of Protococcus liquid cultures monitored at Absorbance 550 nm",
  "type": "cell-based",
  "details": "Protococcus in water",
  "from_the_text": "Liquid cultures were established in the laboratory from the algae specimens collected to include three experimental treatments, which were: A control of Protococcus in water; • 1). Protococcus in water supplemented with 0.5% methanol, which is known to stimulate growth of PPFM bacteria; and • 2) Protococcus in water supplemented with a Vitamin B12 overproducing PPFM. The growth of the cultures was monitored at Absorbance 550 nm with the results below in Table 2 being obtained: […]",
  "data": [
    {"molecule": "CO", "note": "[Methanol, methanol]", "values": [
      {"measurement": "A550 nm", "setting": "After One Week", "value": 0.094},
      {"measurement": "A550 nm", "setting": "After Two Weeks", "value": 0.085},
      {"measurement": "A550 nm", "setting": "Start", "value": 0.069}
    ]}
  ]
}
